Test results reported in patent US20140357633A1, “COMPOUNDS FOR INHIBITING THE INTERACTION OF BCL2 WITH BINDING PARTNERS” (NOVARTIS AG, priority 2011, published 2014).
Values joined by “and” are separate entries in the source; they are usually repeats but may differ in a detail not shown here. Identical values can stand only once.

What was measured:
[1] = biological target: BCL-2 (binding to BAK peptide) (Homo sapiens, UniProt P10415); test: SPR (Biacore) solution inhibition assay, BCL-2 binding to immobilized BAK peptide; details: biotinylated BAK peptide surface, 56 nM BCL-2, 25° C.; range = high and low IC50 values from multiple experiments; read-out: BCL2_SPR IC50 BAK
In short: (§1)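 Compounds (6-point threefold series, 16 μM to 0.004 nM) preincubated 1 h with 56 nM BCL-2, then injected 60 s over biotinylated peptide captured on streptavidin chips at 25° C. Running buffer: 10 mM HEPES pH 7.4, 150 mM NaCl, 1.25 mM DTT, 3% DMSO, 0.05% polysorbate 20. % inhibition versus BCL-2-only binding gave IC50.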

[2] = biological target: BCL-2 (binding to BAD peptide) (Homo sapiens, UniProt P10415); test: SPR (Biacore) solution inhibition assay, BCL-2 binding to immobilized BAD peptide; details: biotinylated BAD peptide surface, 56 nM BCL-2, 25° C.; range = high and low IC50 values from multiple experiments; read-out: BCL2_SPR IC50 BAD
In short: as §1

BCL-2 (binding to BAK peptide), sequence (P10415 whole entry): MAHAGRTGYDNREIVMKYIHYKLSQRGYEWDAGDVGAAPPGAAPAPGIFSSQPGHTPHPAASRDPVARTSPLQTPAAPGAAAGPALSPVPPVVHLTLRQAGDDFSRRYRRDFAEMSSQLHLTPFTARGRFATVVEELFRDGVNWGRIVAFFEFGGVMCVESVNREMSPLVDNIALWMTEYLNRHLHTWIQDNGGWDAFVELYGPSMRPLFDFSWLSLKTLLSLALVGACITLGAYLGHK
BCL-2 (binding to BAD peptide), sequence (P10415 whole entry): as above

SMILES	IC50 [1]	IC50 [2]
CCCCN(CCCC)C(=O)c1cc(C)n(-c2ccc(NC(=O)c3cc(-c4cccc(O)c4)[nH]n3)cc2C(=O)N2Cc3ccccc3C[C@H]2CO)n1 [Example 134]	739 to 881 nM	918 to 958 nM
CCCCN(CCCC)C(=O)c1cc(C)n(-c2ccc(NC(=O)Cc3ccc(OC)c(Cl)c3)cc2C(=O)N2Cc3ccccc3C[C@H]2CO)n1 [Example 96]	71.2 to 76 nM	86.2 to 91.5 nM
CCCCN(CCCC)C(=O)c1cc(C)n(-c2ccc(NC(=O)C(OC)c3ccccc3)cc2C(=O)N2Cc3ccccc3C[C@H]2CO)n1 (some centres unmarked) [Example 72]	48.5 to 49.6 nM	56.8 to 58.8 nM
CCCCN(CCCC)C(=O)c1cc(C)n(-c2ccc(NC(=O)Cc3ccc(F)cc3Cl)cc2C(=O)N2Cc3ccccc3C[C@H]2CO)n1 [Example 158]	436 to 500 nM	537 to 546 nM
CCCCN(CCCC)C(=O)c1cc(C)n(-c2ccc(NC(=O)c3cc(C(C)C)nn3CC)cc2C(=O)N2Cc3ccccc3C[C@H]2CO)n1 [Example 85]	741 to 784 nM	923 to 932 nM
CCCCN(CCCC)C(=O)c1cc(C)n(-c2ccc(NC(=O)Cc3cccc(C#N)c3)cc2C(=O)N2Cc3ccccc3C[C@H]2CO)n1 [Example 160]	180 to 193 nM	229 to 238 nM
CCCCN(CCCC)C(=O)c1cc(C)n(-c2ccc(NC(=O)CC(CC(=O)O)c3ccccc3)cc2C(=O)N2Cc3ccccc3C[C@H]2CO)n1 (some centres unmarked) [Example 16]	95.7 to 103 nM	119 to 126 nM
CCCCN(CCCC)C(=O)c1cc(C)n(-c2ccc(NC(=O)CCc3c[nH]c4c(Cl)cccc34)cc2C(=O)N2Cc3ccccc3C[C@H]2CO)n1 [Example 124]	215 to 235 nM	254 to 260 nM
CCCCN(CCCC)C(=O)c1cc(C)n(-c2ccc(NC(=O)c3cnc(N4CCCC4)nc3)cc2C(=O)N2Cc3ccccc3C[C@H]2CO)n1 [Example 88]	290 to 393 nM	388 to 405 nM
CCCCN(CCCC)C(=O)c1cc(C)n(-c2ccc(NC(=O)c3c(C)n(C)n(-c4ccccc4)c3=O)cc2C(=O)N2Cc3ccccc3C[C@H]2CO)n1 [Example 73]	58.7 to 82.9 nM	74.1 to 100 nM
CCCCN(CCCC)C(=O)c1cc(C)n(-c2ccc(NC(=O)c3csc(-c4cccc(Cl)c4Cl)n3)cc2C(=O)N2Cc3ccccc3C[C@H]2CO)n1 [Example 144]	1260 to 1350 nM	2630 to 2750 nM
CCCCN(CCCC)C(=O)c1cc(C)n(-c2ccc(NC(=O)Cc3ccccc3F)cc2C(=O)N2Cc3ccccc3C[C@H]2CO)n1 [Example 57]	63.1 to 66.9 nM	77.3 to 79.6 nM
CCCCN(CCCC)C(=O)c1cc(C)n(-c2ccc(NC(=O)C(CC(=O)N3CCCC3)c3ccccc3)cc2C(=O)N2Cc3ccccc3C[C@H]2CO)n1 (some centres unmarked) [Example 27]	58.5 to 70.9 nM	61.9 to 66.8 nM
CCCCN(CCCC)C(=O)c1cc(C)n(-c2ccc(NC(=O)[C@H](C)c3ccccc3)cc2C(=O)N2Cc3ccccc3C[C@H]2CO)n1 [Example 113]	562 to 660 nM	671 to 708 nM
CCCCN(CCCC)C(=O)c1cc(C)n(-c2ccc(NC(=O)c3ccc4c(c3)nnn4C(C)C)cc2C(=O)N2Cc3ccccc3C[C@H]2CO)n1 [Example 147]	298 to 315 nM	306 to 381 nM
CCCCN(CCCC)C(=O)c1cc(C)n(-c2ccc(NC(=O)c3oc(-c4ccccc4)nc3C)cc2C(=O)N2Cc3ccccc3C[C@H]2CO)n1 [Example 46]	692 to 840 nM	628 to 760 nM
CCCCN(CCCC)C(=O)c1cc(C)n(-c2ccc(NC(=O)COc3cc(Cl)c(Cl)cc3Cl)cc2C(=O)N2Cc3ccccc3C[C@H]2CO)n1 [Example 127]	106 to 108 nM	131 to 138 nM
CCCCN(CCCC)C(=O)c1cc(C)n(-c2ccc(NC(=O)COc3ccccc3)cc2C(=O)N2Cc3ccccc3C[C@H]2CO)n1 [Example 4]	83.8 to 109 nM	78.7 to 97.4 nM
CCCCN(CCCC)C(=O)c1cc(C)n(-c2ccc(NC(=O)c3ccccc3Oc3ccccc3)cc2C(=O)N2Cc3ccccc3C[C@H]2CO)n1 [Example 68]	100 to 103 nM	122 to 125 nM
CCCCC(CCCC)C(=O)c1cc(C)n(-c2ccc(NC(=O)COc3cccc4ccccc34)cc2C(=O)N2Cc3ccccc3C[C@H]2CO)n1 [Example 110]	250 to 272 nM	273 to 318 nM

SMILES	IC50 [1]	IC50 [2]
CCCCN(CCCC)C(=O)c1cc(C)n(-c2ccc(NC(=O)c3csc(N4CCOCC4)n3)cc2C(=O)N2Cc3ccccc3C[C@H]2CO)n1 [Example 122]	237 to 257 nM	317 to 325 nM
CCCCN(CCCC)C(=O)c1cc(C)n(-c2ccc(NC(=O)Cc3cccc(F)c3)cc2C(=O)C2Cc3ccccc3C[C@H]2CO)n1 (some centres unmarked) [Example 75]	53.2 to 59 nM	66.6 to 70 nM
CCCCN(CCCC)C(=O)c1cc(C)n(-c2ccc(NC(=O)CC(=O)O)cc2C(=O)N2Cc3ccccc3C[C@H]2CO)n1 [Example 19]	241 to 251 nM	363 to 365 nM
CCCCN(CCCC)C(=O)c1cc(C)n(-c2ccc(NC(=O)C(C)(C)c3ccccc3)cc2C(=O)N2Cc3ccccc3C[C@H]2CO)n1 [Example 31]	119 to 144 nM	132 to 146 nM
CCCCN(CCCC)C(=O)c1cc(C)n(-c2ccc(NC(=O)Cc3cc(F)ccc3OC)cc2C(=O)N2Cc3ccccc3C[C@H]2CO)n1 [Example 70]	133 to 134 nM	143 to 158 nM
CCCCN(CCCC)C(=O)c1cc(C)n(-c2ccc(NC(=O)CSc3cc(C)c(Cl)cc3Cl)cc2C(=O)N2Cc3ccccc3C[C@H]2CO)n1 [Example 129]	70.7 to 77.1 nM	89.5 to 92.9 nM
CCCCN(CCCC)C(=O)c1cc(C)n(-c2ccc(NC(=O)Cc3ccccc3Cl)cc2C(=O)N2Cc3ccccc3C[C@H]2CO)n1 [Example 139]	192 to 194 nM	276 to 287 nM
CCCCN(CCCC)C(=O)c1cc(C)n(-c2ccc(NC(=O)CCc3nc(-c4ccccc4)no3)cc2C(=O)N2Cc3ccccc3C[C@H]2CO)n1 [Example 60]	95.2 to 96.7 nM	111 to 120 nM
CCCCN(CCCC)C(=O)c1cc(C)n(-c2ccc(NC(=O)c3cn4ccccc4n3)cc2C(=O)N2Cc3ccccc3C[C@H]2CO)n1 [Example 58]	204 to 205 nM	249 to 282 nM
CCCCN(CCCC)C(=O)c1cc(C)n(-c2ccc(NC(=O)[C@@H](C)c3ccccc3)cc2C(=O)N2Cc3ccccc3C[C@H]2CO)n1 [Example 52]	75.5 to 79.1 nM	84.2 to 88.5 nM
CCCCN(CCCC)C(=O)c1cc(C)n(-c2ccc(NC(=O)c3cc(SC)ccc3Cl)cc2C(=O)N2Cc3ccccc3C[C@H]2CO)n1 [Example 89]	222 to 231 nM	282 to 288 nM
CCCCN(CCCC)C(=O)c1cc(C)n(-c2ccc(NC(=O)c3cc(C)[nH]n3)cc2C(=O)N2Cc3ccccc3C[C@H]2CO)n1 [Example 109]	505 to 525 nM	477 to 528 nM
CCCCN(CCCC)C(=O)c1cc(C)n(-c2ccc(NC(=O)Cc3ccc(OC)c(OC)c3)cc2C(=O)N2Cc3ccccc3C[C@H]2CO)n1 [Example 136]	95.4 to 98.2 nM	119 to 123 nM
CCCCN(CCCC)C(=O)c1cc(C)n(-c2ccc(NC(=O)Cc3ccc4ccccc4c3)cc2C(=O)N2Cc3ccccc3C[C@H]2CN)n1 [Example 54]	58.1 to 59.3 nM and 58.9 to 68.8 nM	66.9 to 67.7 nM and 69.8 to 79.8 nM
CCCCN(CCCC)C(=O)c1cc(C)n(-c2ccc(NC(=O)CC3NC(=O)NC3=O)cc2C(=O)N2Cc3ccccc3C[C@H]2CO)n1 (some centres unmarked) [Example 111]	553 to 566 nM	763 to 799 nM
CCCCN(CCCC)C(=O)c1cc(C)n(-c2ccc(NC(=O)C(CCO)c3ccccc3)cc2C(=O)N2Cc3ccccc3C[C@H]2CO)n1 (some centres unmarked) [Example 105]	89.4 to 94.3 nM	114 to 119 nM
CCCCN(CCCC)C(=O)c1cc(C)n(-c2ccc(NC(=O)C(CC(N)=O)c3ccccc3)cc2C(=O)N2Cc3ccccc3C[C@H]2CO)n1 (some centres unmarked) [Example 117]	67.5 to 71.4 nM	82.1 to 88.8 nM
CCCCN(CCCC)C(=O)c1cc(C)n(-c2ccc(NC(=O)c3cc(C(C)C)nn3C)cc2C(=O)N2Cc3ccccc3C[C@H]2CO)n1 [Example 47]	586 to 600 nM	522 to 594 nM
CCCCN(CCCC)C(=O)c1cc(C)n(-c2ccc(NC(=O)c3cc(=O)c4cc(C)ccc4o3)cc2C(=O)N2Cc3ccccc3C[C@H]2CO)n1 [Example 59]	395 to 410 nM	531 to 537 nM
CCCCN(CCCC)C(=O)c1cc(C)n(-c2ccc(NC(=O)Cc3ccc(OC)c(C)c3)cc2C(=O)N2Cc3ccccc3C[C@H]2CO)n1 [Example 95]	107 to 108 nM	148 to 155 nM
